Data as given in ChEMBL document CHEMBL4028830, “Novel pyrazoles and pyrazolo[1,2-a]pyridazines as selective COX-2 inhibitors; Ultrasound-assisted synthesis, biological evaluation, and DFT calculations” (Bioorg Med Chem Lett, 2017).

Experiments:
[1] = molecular target: T1, Prostaglandin G/H synthase 2 (Homo sapiens, UniProt P35354); assay: Inhibition of COX2 (unknown origin) using arachidonic acid as substrate pretreated for 10 mins followed by substrate addition measured after 2 mins by enzyme-immunoassay
T1 sequence (P35354 whole entry): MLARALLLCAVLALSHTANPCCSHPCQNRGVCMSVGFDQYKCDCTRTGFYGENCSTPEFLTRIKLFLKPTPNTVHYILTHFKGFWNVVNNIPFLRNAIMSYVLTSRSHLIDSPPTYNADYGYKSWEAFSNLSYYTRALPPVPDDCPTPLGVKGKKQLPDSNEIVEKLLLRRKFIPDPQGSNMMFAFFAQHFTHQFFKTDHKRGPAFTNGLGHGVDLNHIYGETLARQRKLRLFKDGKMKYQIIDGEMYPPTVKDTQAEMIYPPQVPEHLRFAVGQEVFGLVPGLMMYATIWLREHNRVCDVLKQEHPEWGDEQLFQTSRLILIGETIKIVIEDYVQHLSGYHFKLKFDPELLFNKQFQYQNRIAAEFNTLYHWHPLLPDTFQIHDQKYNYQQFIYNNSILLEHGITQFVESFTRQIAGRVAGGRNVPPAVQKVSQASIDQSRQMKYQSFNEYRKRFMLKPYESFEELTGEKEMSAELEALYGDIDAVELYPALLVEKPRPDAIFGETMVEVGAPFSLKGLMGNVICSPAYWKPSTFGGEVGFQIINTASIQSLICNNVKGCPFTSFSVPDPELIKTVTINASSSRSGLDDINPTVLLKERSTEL

[2] = tested on: Rattus norvegicus; assay: Analgesic activity in albino rat model of thermal-induced nociception assessed as tail withdrawal latency time at 100 mg/kg, po measured at 180 mins post dose by tail immersion test (reference value: 2.62 +/- 0.13 min); format: functional
[3] = tested on: Rattus norvegicus; assay: Anti-inflammatory activity against carrageenan-induced paw oedema in rat assessed as paw thickness at 100 mg/kg measured immediately (reference value: 0.98 +/- 0.03 cm); format: functional
[4] = molecular target: Prostaglandin G/H synthase 1 (Homo sapiens, UniProt P23219); assay: Inhibition of COX1 (unknown origin) using arachidonic acid as substrate pretreated for 10 mins followed by substrate addition measured after 2 mins by enzyme-immunoassay
[5] = tested on: Rattus norvegicus; assay: Analgesic activity in albino rat model of thermal-induced nociception assessed as tail withdrawal latency time at 100 mg/kg, po measured at 120 mins post dose by tail immersion test (reference value: 2.63 +/- 0.15 min); format: functional
[6] = tested on: Rattus norvegicus; assay: Anti-inflammatory activity against carrageenan-induced paw oedema in albino rat assessed as paw thickness at 100 mg/kg measured at 6 hrs post dose (reference value: 0.92 +/- 0.03 cm); format: functional
[7] = tested on: Rattus norvegicus; assay: Analgesic activity in albino rat model of thermal-induced nociception assessed as tail withdrawal latency time at 100 mg/kg, po measured at 300 mins post dose by tail immersion test (reference value: 2.58 +/- 0.11 min); format: functional
[8] = tested on: Rattus norvegicus; assay: Analgesic activity in albino rat model of thermal-induced nociception assessed as tail withdrawal latency time at 100 mg/kg, po measured at 240 mins post dose by tail immersion test (reference value: 2.62 +/- 0.13 min); format: functional
[9] = tested on: Rattus norvegicus; assay: Analgesic activity in albino rat model of thermal-induced nociception assessed as tail withdrawal latency time at 100 mg/kg, po measured at 60 mins post dose by tail immersion test (reference value: 2.62 +/- 0.11 min); format: functional
[10] = tested on: Rattus norvegicus; assay: Analgesic activity in albino rat model of thermal-induced nociception assessed as tail withdrawal latency time at 100 mg/kg, po measured immediately by tail immersion test (reference value: 2.60 +/- 0.14 min); format: functional
[11] = tested on: Rattus norvegicus; assay: Anti-inflammatory activity against carrageenan-induced paw oedema in albino rat assessed as paw thickness at 100 mg/kg measured at 3 hrs post dose (reference value: 0.93 +/- 0.02 cm); format: functional
[12] = species: Homo sapiens; assay: Selectivity index, ratio of IC50 for COX1 (unknown origin) to IC50 for COX2 (unknown origin)

Chain of Prostaglandin G/H synthase 1 (P23219 whole entry): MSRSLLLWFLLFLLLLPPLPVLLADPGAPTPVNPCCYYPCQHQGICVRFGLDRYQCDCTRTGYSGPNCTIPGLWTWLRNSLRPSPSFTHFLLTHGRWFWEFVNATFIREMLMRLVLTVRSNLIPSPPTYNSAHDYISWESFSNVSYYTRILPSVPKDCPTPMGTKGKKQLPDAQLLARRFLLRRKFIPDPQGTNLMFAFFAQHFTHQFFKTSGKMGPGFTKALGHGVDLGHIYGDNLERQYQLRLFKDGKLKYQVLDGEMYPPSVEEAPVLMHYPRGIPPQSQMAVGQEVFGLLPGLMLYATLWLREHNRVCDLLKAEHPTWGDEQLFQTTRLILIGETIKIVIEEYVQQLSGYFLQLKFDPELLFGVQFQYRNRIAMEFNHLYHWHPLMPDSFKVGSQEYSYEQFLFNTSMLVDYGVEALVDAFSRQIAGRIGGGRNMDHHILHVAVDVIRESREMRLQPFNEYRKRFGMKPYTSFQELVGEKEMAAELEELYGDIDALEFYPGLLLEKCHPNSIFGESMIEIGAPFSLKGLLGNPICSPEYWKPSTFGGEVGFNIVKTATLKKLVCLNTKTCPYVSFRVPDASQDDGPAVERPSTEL

Row | SMILES | IC50 [1] | Time [2] [min] | Activity [3] [cm] | IC50 [4] | Time [5] [min] | Activity [6] [cm] | Time [7] [min] | Time [8] [min] | Time [9] [min] | Time [10] [min] | Activity [11] [cm] | IC50 ([1]; read-out: IC50) [nM] | IC50 ([4]; read-out: IC50) [nM] | Selectivity Index [12]
1 | CCOC(=O)C1=C(N)n2c(=O)c3ccccc3c(=O)n2C1c1ccccc1O (stereo not given) | Not Active | 6.85 | 0.97 | Not Active | 6.68 | 0.67 | 5.62 | 6.33 | 5.53 | 2.52 | 0.72 | – | – | –
2 | O=C(/C=C/c1ccccc1O)Nc1ccccc1 | – | 4.18 | 1.02 | – | 4.12 | 0.65 | 3.97 | 3.92 | 3.78 | 2.63 | 0.83 | – | – | –
3 | CCOC(=O)C1=C(N)N2C(=O)CCC(=O)N2C1c1ccccc1O (stereo not given) | – | 6.85 | 1.02 | – | 6.68 | 0.65 | 5.62 | 6.33 | 5.53 | 2.63 | 0.7 | 181 | 88.1 | 0.47
4 | O=C([O-])Cc1ccccc1Nc1c(Cl)cccc1Cl.[Na+] [DICLOFENAC SODIUM] | – | 4.87 | 1.02 | – | 4.98 | 0.63 | 3.99 | 4.21 | 6.44 | 2.63 | 0.77 | – | – | –
5 | O=C(c1ccccc1O)n1nc(Nc2ccccc2)cc1-c1ccccc1O | – | 4.18 | 0.97 | – | 4.05 | 0.55 | 4.22 | 4.07 | 3.95 | 2.47 | 0.63 | 16.2 | 70.4 | 4.35
6 | O=C(NN1C(=O)c2ccccc2C1=O)c1ccccc1O | – | 6.25 | 0.98 | – | 5.58 | 0.72 | 7.2 | 6.23 | 5.58 | 2.55 | 0.73 | 130 | 92.2 | 0.71
7 | CCOC(=O)C1=C(N)n2c(=O)ccc(=O)n2C1c1ccccc1O (stereo not given) | – | 4.58 | 1.03 | – | 4.47 | 0.7 | 4.43 | 4.52 | 4.33 | 2.72 | 0.82 | 90.1 | 74.4 | 0.83
8 | CCOC(=O)C1=C(N)n2c(=O)c3ncccc3c(=O)n2C1c1ccccc1O (stereo not given) | – | 5.75 | 0.98 | – | 5.53 | 0.62 | 4.08 | 5.25 | 5.83 | 2.55 | 0.68 | 20.1 | 66.7 | 3.32
9 | Cc1cc(C)n(C(=O)c2ccccc2O)n1 | Not Active | 4.83 | 0.98 | Not Active | 5.79 | 0.67 | 4.8 | 5.66 | 6.05 | 2.62 | 0.75 | – | – | –
10 | CC1=NN(C(=O)c2ccccc2O)C(=O)C1 | – | 4.7 | 1.02 | – | 4.78 | 0.67 | 4.4 | 4.67 | 5.52 | 2.48 | 0.77 | 151 | 82.1 | 0.54
11 | O=C(NN1C(=O)CCC1=O)c1ccccc1O | Not Active | 4.85 | 1 | Not Active | 4.98 | 0.62 | 5.78 | 5.28 | 5.02 | 2.42 | 0.73 | – | – | –
12 | O=C(NN1C(=O)c2cccnc2C1=O)c1ccccc1O | Not Active | 4.3 | 0.97 | Not Active | 3.97 | 0.72 | 4.17 | 4.27 | 3.78 | 2.57 | 0.83 | – | – | –
13 | O=C(NN1C(=O)C=CC1=O)c1ccccc1O | Not Active | 5.47 | 1 | Not Active | 5.52 | 0.77 | 5.13 | 5.23 | 5.98 | 2.58 | 0.83 | – | – | –
